In ChEMBL document CHEMBL1122692, “Catechol derivatives of 6-aminobenzocycloheptene: assessment of dopaminergic effects” (1984):

Tests used:
Format in all cases: functional
[1] = tested on: Felis catus; test: Compound was evaluated for the biological activity (pressure) in anesthetized cats at a dose of 40 ug/kg
[2] = tested on: Felis catus; test: Compound was evaluated for the biological activity (pressure) in anesthetized cats at a dose of 10 ug/kg
[3] = tested on: Felis catus; test: Compound was evaluated for the biological activity (pressure) in anesthetized cats at a dose of 20 ug/kg

NC1CCCc2c(ccc(O)c2O)C1 (stereo not drawn) gave a Pressure [1] of 70 mmHg, a Pressure [2] of 15 mmHg and a Pressure [3] of 38 mmHg.
